Values of other authors as cited in patent US20220168251A1, “PROCESS FOR PRODUCTION OF A NANO-MICROEMULSION SYSTEM OF FERULIC” (priority 2020, published 2022).

Test system: hypertensive rats
Details: 8 weeks of treatment

COc1cc(/C=C/C(=O)O)ccc1O [ferulic acid, Ferulic acid]
blood flow to kidney: improvement
left ventricular stiffness in heart: decrease
systolic blood pressure: significant decrease
